“And” between values parts separate entries of the source, which are not always exact repeats. Identical values can stand only once. Like-named read-outs stand apart in the source and are kept apart here.
Key:
smHDAC8 = target: T1, smHDAC8 (Schistosoma mansoni, UniProt A5H660); assay: biochemical; type: biochemical; settings: for inhibition at 10 µM: read-out: smHDAC8 (% inhibition, Fluor de Lys); for inhibition at 5 µM / inhibition at 50 µM: pretest; for inhibition at 5 µM: read-out: smHDAC8 % inhibition @ 5 μM (Fluor de Lys); for inhibition at 50 µM: read-out: smHDAC8 % inhibition @ 50 μM (Fluor de Lys)
T1 construct: made in house; host or cells: E. coli
T1 sequence (A5H660 1-440): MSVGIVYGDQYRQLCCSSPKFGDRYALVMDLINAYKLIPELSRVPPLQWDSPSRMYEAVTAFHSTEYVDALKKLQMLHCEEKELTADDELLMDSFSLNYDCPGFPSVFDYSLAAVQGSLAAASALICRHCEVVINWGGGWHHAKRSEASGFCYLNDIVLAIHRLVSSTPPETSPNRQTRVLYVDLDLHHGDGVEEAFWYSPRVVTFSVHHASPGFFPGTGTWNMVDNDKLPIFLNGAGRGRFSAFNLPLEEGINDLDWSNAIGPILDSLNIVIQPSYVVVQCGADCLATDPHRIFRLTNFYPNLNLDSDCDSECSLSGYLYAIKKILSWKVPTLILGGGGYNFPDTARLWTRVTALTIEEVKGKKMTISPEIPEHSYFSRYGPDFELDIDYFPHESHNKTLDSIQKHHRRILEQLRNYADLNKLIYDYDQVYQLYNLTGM

hsHDAC8 [1] = target: T2, hsHDAC8 (Homo sapiens, UniProt Q9BY41); assay: In vitro hsHDAC8 inhibition, homogeneous fluorescence assay (Fluor de Lys substrate); type: biochemical; settings: n=2; mean ± S.E.M.
T2 construct: made in house
T2 sequence (Q9BY41 1-377): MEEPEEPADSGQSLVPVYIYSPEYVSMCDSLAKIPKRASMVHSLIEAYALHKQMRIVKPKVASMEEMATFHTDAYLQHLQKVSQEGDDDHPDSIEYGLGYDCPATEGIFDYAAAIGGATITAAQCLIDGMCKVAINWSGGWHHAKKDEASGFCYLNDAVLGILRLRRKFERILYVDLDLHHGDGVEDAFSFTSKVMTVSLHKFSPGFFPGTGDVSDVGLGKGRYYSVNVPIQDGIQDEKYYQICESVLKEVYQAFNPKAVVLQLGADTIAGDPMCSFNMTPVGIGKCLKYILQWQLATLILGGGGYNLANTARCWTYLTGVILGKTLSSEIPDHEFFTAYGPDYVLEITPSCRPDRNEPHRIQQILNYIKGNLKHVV

hsHDAC6 = target: T3, hsHDAC6 (Homo sapiens, UniProt Q9UBN7); assay: In vitro hsHDAC6 inhibition (ZMAL substrate, trypsin developer); type: biochemical; settings: for IC50: n=2, mean ± S.E.M.
T3 sequence (Q9UBN7 1-1215): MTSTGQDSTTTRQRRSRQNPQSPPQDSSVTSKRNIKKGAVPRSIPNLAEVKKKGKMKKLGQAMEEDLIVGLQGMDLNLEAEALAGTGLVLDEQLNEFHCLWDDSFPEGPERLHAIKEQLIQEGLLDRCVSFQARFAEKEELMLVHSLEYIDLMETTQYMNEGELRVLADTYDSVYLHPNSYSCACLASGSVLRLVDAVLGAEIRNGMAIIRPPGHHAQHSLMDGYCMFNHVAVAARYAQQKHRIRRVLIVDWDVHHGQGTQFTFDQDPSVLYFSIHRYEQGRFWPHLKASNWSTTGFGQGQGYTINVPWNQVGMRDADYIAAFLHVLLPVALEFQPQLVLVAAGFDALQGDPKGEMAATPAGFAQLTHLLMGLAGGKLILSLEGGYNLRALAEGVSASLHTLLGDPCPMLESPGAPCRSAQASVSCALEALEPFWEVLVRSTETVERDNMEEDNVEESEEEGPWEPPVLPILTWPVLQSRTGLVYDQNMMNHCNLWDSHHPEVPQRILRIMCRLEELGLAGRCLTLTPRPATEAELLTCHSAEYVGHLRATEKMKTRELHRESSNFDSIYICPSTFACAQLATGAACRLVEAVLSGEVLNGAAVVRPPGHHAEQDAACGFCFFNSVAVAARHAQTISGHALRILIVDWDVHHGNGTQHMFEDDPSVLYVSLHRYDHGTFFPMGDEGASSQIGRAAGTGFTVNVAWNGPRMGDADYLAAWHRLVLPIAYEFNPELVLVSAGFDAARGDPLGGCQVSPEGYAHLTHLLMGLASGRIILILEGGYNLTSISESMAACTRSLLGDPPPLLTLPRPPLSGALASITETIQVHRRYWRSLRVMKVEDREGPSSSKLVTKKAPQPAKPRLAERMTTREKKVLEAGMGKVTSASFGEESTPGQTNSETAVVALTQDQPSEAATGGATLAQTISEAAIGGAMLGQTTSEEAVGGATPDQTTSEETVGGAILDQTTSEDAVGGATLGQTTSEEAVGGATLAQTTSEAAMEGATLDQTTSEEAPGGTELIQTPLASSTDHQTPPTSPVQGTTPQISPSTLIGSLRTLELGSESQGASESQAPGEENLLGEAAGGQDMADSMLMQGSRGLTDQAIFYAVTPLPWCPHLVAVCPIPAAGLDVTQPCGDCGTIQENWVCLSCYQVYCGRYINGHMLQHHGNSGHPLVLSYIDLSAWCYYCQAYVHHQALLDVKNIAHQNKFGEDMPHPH

hsHDAC1 [2] = target: T4, hsHDAC1 (Homo sapiens, UniProt Q13547); assay: In vitro hsHDAC1 inhibition (ZMAL substrate, trypsin developer); type: biochemical; settings: for inhibition at 10 µM: read-out: hsHDAC1 (% inhibition, ZMAL)
[3] = test system: S. mansoni larvae (schistosomula); assay: Schistosome viability testing, resazurin-based fluorescence assay; type: cell-based, Schistosoma mansoni
Method: Selected compounds (Table 4) were tested for their effects on the viability of S. mansoni larvae (schistosomula) using a resazurin‐based fluorescence assay that measures mitochondrial activity. Assays were carried out in triplicate on two separate batches of schistosomula and the results are expressed as the percentage of the value obtained with the solvent (DMSO). Initial testing was done at 10 μM as part of a high‐throughput screening procedure and compounds provoking at least a 25 % reduction in viability were tested at 20 μM to determine a dose‐response. […] However, the level of reduction obtained was mediocre and this compound was not considered for further testing. […] A variety of schistosome viability assays are currently used in the field [e. g. […] However, since we have compared compounds that a priori have the same biological target, it is unlikely that they will have different effects on the parasite and that a different viability assay, for example based on morphological characteristics,52 would give different results. Nevertheless, in view of the potency of the triazole‐based smHDAC8 inhibitors on the enzyme, their further development, aimed at improving their bioavailability, is justified.
Schistosome viability testing: The resazurin‐based assay to determine the effects of novel inhibitors targeting smHDAC8 on the viability of S. mansoni schistosomula was carried out exactly as previously described.27, 62 Briefly, newly transformed schistosomula (NTS) were obtained in vitro as previously described63 by mechanical transformation of S. mansoni cercaria. A suspension of NTS was prepared at a concentration of 100 per 100 μL using Medium 199 (Invitrogen) supplemented with 10 % fetal calf serum (Gibco), penicillin (50 U×mL^−1), streptomycin (50 μg×mL^−1), and rifampicin (60 μg×mL^−1). Schistosomula were kept in culture for 3 h at 37 °C and 5 % CO2 prior to use in screening. Drug stock solutions of 20 mM in DMSO were used. Mid‐dilutions were performed in 100 % DMSO and 1 μL added to 100 μL/well of M199 medium in black 96 well plates (Nunc, UK) with supplemented Medium 199 and 100 μL of the prepared NTS suspension (100 NTS/well). Live and dead schistosomula (treated with 70 % ethanol) were used as positive and negative controls. Experiments were carried out in triplicate wells in two biological replicates and the compounds were tested at final concentrations of 10 and 20 μM. After 48 h of drug exposure, 20 μL of resazurin solution (Abd Serotec) were added to each well. Finally, after 72 h of exposure, the fluorescence intensity of the highly red fluorescent resorufin product was measured using an excitation wavelength of 530 nm and an emission wavelength of 590 nm in an Infinite M200 Pro microplate reader (TECAN). Background fluorescence of the drug containing medium were determined for each drug dilution using wells containing only DMSO as control.

hsHDAC1 [4] = target: T4, hsHDAC1; set-up: method as in PMID 19007204; settings: cited from earlier work
hsHDAC8 [5] = target: T2, hsHDAC8; set-up: method as in PMID 19007204; settings: cited from earlier work
[6] = Schistosoma mansoni, 72 h, read-out: % viability of S. mansoni schistosomula

T4 sequence (Q13547 whole entry): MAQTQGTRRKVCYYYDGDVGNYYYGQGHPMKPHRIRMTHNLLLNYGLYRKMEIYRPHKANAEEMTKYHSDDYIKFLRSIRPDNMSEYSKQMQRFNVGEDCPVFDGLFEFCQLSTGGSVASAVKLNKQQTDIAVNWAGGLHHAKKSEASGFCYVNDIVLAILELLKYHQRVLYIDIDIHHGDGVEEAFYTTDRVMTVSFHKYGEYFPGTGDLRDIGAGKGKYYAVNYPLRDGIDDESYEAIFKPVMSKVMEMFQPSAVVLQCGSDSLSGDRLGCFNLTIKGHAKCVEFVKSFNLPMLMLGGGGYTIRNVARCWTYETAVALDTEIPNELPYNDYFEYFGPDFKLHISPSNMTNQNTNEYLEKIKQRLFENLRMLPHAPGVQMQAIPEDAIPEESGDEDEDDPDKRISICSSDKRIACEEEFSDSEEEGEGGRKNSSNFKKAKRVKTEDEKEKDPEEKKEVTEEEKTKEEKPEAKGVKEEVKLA

O=C(NO)c1cn(-c2ccccc2)nn1 [Compound 2 b, N ‐Hydroxy‐1‐phenyl‐1H‐1,2,3‐triazole‐4‐carboxamide]
IC50 (smHDAC8): 4.44 ± 1.52 µM | inhibition at 10 µM (smHDAC8; @ 10 μM, pretest n=1): 57.9% | IC50 (hsHDAC8 [1]): 12.4 ± 1.08 µM | IC50 (hsHDAC6): 42.5 ± 3.64 µM | inhibition at 10 µM (hsHDAC1 [2]): 8.1 ± 1% | viability at 10 µM [3, 6]: 92.5%

O=C(NO)c1cn(-c2ccc(C#CC#Cc3ccccc3)cc2)nn1 [Compound 2 j, N ‐Hydroxy‐1‐[4‐(4‐phenylbuta‐1,3‐diynyl)phenyl]‐1H‐1,2,3‐triazole‐4‐carboxamide]
smHDAC8 (% inhibition, Fluor de Lys) (smHDAC8; @ 10 μM, pretest n=1): nearly no inhibitory activity | inhibition at 10 µM (smHDAC8; @ 10 μM, pretest n=1): 6.8%

O=C(NO)c1cn(-c2ccccc2O)nn1 [Compound 12]
inhibition at 5 µM (smHDAC8): 19.5% | inhibition at 50 µM (smHDAC8): 63.5%

O=C(NO)c1cn(CCCc2ccccc2)nn1 [Compound 2 g]
IC50 (smHDAC8): 8.81 ± 1.89 µM | inhibition at 10 µM (smHDAC8; @ 10 μM, pretest n=1): 50.5% | IC50 (hsHDAC8 [1]): 5.37 ± 0.68 µM | IC50 (hsHDAC6): 31.8 ± 6.18 µM | inhibition at 10 µM (hsHDAC1 [2]): 5.4 ± 7% | melting point: 182 °C | inhibition of hsHDAC1 (in words) (hsHDAC1 [4]): weakly inhibit | inhibition of hsHDAC8 (in words) (hsHDAC8 [5]): weakly inhibit

O=C(NO)c1cn(-c2cc(Cl)ccc2Oc2ccccc2)nn1 [Compound 29, 1‐(5‐Chloro‐2‐phenoxyphenyl)‐N‐hydroxy‐1H‐1,2,3‐triazole‐4‐carboxamide]
inhibition at 5 µM (smHDAC8): 51.4% | inhibition at 50 µM (smHDAC8): 91.5% | viability at 10 µM [3, 6]: 64.2% | viability at 20 µM [3, 6]: 49.9% | reduction in viability of schistosomula (in words) ([3]; at 10 and 20 μM): significant reduction in viability

O=C(NO)c1cn(-c2cc(Cl)ccc2O)nn1 [Compound 13, 1‐(5‐Chloro‐2‐hydroxyphenyl)‐N‐hydroxy‐1H‐1,2,3‐triazole‐4‐carboxamide]
inhibition at 5 µM (smHDAC8): 14.5% | inhibition at 50 µM (smHDAC8): 67.3%

O=C(NO)c1cn(CCc2ccccc2)nn1 [Compound 2 f]
IC50 (smHDAC8): 10.7 ± 1.88 µM | inhibition at 10 µM (smHDAC8; @ 10 μM, pretest n=1): 49.5% | IC50 (hsHDAC8 [1]): 5.54 ± 0.64 µM | inhibition at 10 µM (hsHDAC6): 12.6 ± 9.6% | inhibition at 10 µM (hsHDAC1 [2]): 1.7 ± 3.4% | melting point: 178 °C | inhibition of hsHDAC1 (in words) (hsHDAC1 [4]): weakly inhibit | inhibition of hsHDAC8 (in words) (hsHDAC8 [5]): weakly inhibit

O=C(NO)c1cn(-c2ccccc2Oc2ccccc2)nn1 [Compound 28]
inhibition at 5 µM (smHDAC8): 49.1% | inhibition at 50 µM (smHDAC8): 87.9%

O=C(NO)c1cn(Cc2ccc(C(F)(F)F)cc2)nn1 [Compound 2 e]
IC50 (smHDAC8): 5.12 ± 0.64 µM | inhibition at 10 µM (smHDAC8; @ 10 μM, pretest n=1): 52.5% | IC50 (hsHDAC8 [1]): 3.47 ± 0.53 µM | inhibition at 10 µM (hsHDAC6): 2.2 ± 0.5% | inhibition at 10 µM (hsHDAC1 [2]): 3.3 ± 2.5% | melting point: 192 °C

O=C(NO)c1cn(-c2cc(Cl)ccc2OCc2ccc(I)cc2)nn1 [Compound 17, 1‐{5‐Chloro‐2‐[(4‐iodobenzyl)oxy]phenyl}‐N‐hydroxy‐1H‐1,2,3‐triazole‐4‐carboxamide]
inhibition at 50 µM (smHDAC8): 21%

Cc1ccc(Oc2ccc(Cl)cc2-n2cc(C(=O)NO)nn2)cc1 [Compound 20]
inhibition at 5 µM (smHDAC8): 49.8% | inhibition at 50 µM (smHDAC8): 91.1%

O=C(NO)c1cn(-c2cc(Cl)ccc2Oc2ccc(F)cc2)nn1 [Compound 21, 1‐[5‐Chloro‐2‐(4‐fluorophenoxy)phenyl]‐N‐hydroxy‐1H‐1,2,3‐triazole‐4‐carboxamide]
inhibition at 5 µM (smHDAC8): 66.2% | inhibition at 50 µM (smHDAC8): 93.4% | IC50 (smHDAC8; n=2, mean ± S.E.M., read-out: smHDAC8 IC50 (Fluor de Lys)): 0.5 µM and 0.504 µM | IC50 (hsHDAC8 [1]): 2.2 ± 0.68 µM | inhibition at 5 µM (hsHDAC6; @ 5 μM): -1.5% | inhibition at 50 µM (hsHDAC6; @ 50 μM): 34.5% | inhibition at 5 µM (hsHDAC1 [2]; @ 5 μM): 11% | inhibition at 50 µM (hsHDAC1 [2]; @ 50 μM): 38.2% | viability at 10 µM [3, 6]: 82%

O=C(NO)c1cn(Cc2ccc(F)cc2)nn1 [Compound 2 d]
inhibition at 10 µM (smHDAC8; @ 10 μM, pretest n=1): 36.1%

Cl.O=C(NO)c1cn(-c2ccc(C#Cc3ccc(CN4CCOCC4)cc3)cc2)nn1 [Compound 2 i]
inhibition at 10 µM (smHDAC8; @ 10 μM, pretest n=1): 48% | melting point: 239 °C (dec.)

O=C(NO)c1cn(-c2ccccc2C(=O)c2ccccc2)nn1 [Compound 32, 1‐(2‐Benzoylphenyl)‐N‐hydroxy‐1H‐1,2,3‐triazole‐4‐carboxamide]
inhibition at 5 µM (smHDAC8): 23.4% | inhibition at 50 µM (smHDAC8): 75.4%

O=C(NO)c1cn(Cc2ccccc2)nn1 [Compound 2 c]
inhibition at 10 µM (smHDAC8; @ 10 μM, pretest n=1): 39.6% | melting point: 183 °C | inhibition of hsHDAC1 (in words) (hsHDAC1 [4]): weakly inhibit | inhibition of hsHDAC8 (in words) (hsHDAC8 [5]): weakly inhibit

O=C(NO)c1cn(-c2cc(Cl)ccc2OCc2ccc3ccccc3c2)nn1 [Compound 16]
inhibition at 50 µM (smHDAC8): 43.5%
